# According to publication PMC8958505, “Discovery of Potential Neuroprotective Agents against Paclitaxel-Induced Peripheral Neuropathy” (Journal of Medicinal Chemistry, 2022):
# Where a name gives a salt, the structure may show the parent alone. Read-outs that look alike come from different tables or passages of the source.
# Experiments:
# [1] = tested on: mouse primary DRG neurons; test: Neurite outgrowth assay of DRG neurons (image-based HCS) against paclitaxel-induced neurotoxicity; type: cell-based; conditions: for activation at 1 µM: Mus musculus, DRG neuron; for protective efficacy against paclitaxel-induced neurotoxicity (in words): pretreated, + 50 nM paclitaxel
# Protocol: All these 19 compounds were then subjected to the neurite outgrowth assay of dorsal root ganglion (DRG) neurons paired with an image-based HCS to analyze whether they had neuroprotective potential. Quantification of neurite outgrowth under different regimens is shown in Figure 3, wherein DRG neurons incubated in 50 nM paclitaxel could cause 60% reduction in neurite outgrowth compared to the control (no drug treatment). […] Taken together, CN016 is selected as a promising lead for further development.
# (§1) Primary cortical or DRG cells were fixed with 4% paraformaldehyde for 15 min following compound and paclitaxel treatment. After washing with PBS, the fixed cells were permeabilized with PBS containing 0.05% Triton X-100 for 20 min and then blocked with commercial blocking buffer (#GTX30963; GeneTex, USA) at room temperature for 1 h. Subsequently, the cortical cells were stained for the extending processes and synaptic puncta by using anti-MAP2 (#MBS502140, 1:500; Mybiosource, USA) and anti-synaptophysin (#ab32127, 1:500; Abcam, UK) overnight. DRG cells were stained for the neurite and neuron nucleus by using anti-β III tubulin (#D71G9, 1:600; Cell Signaling, USA) and anti-NeuN monoclonal antibody (#MAB377, 1:400; Millipore, USA) overnight. On the second day, the samples were washed for 30 min with wash buffer and incubated with secondary antibodies (Alexa-488, 647 1:600; Thermo Fisher, USA) and 4 μg/mL Hoechst 33258 (#94403-1ML, 1:100; Merck, USA) at room temperature for 1 h. In the initial experiments of screening the potential neuroprotective compound for CIPN, ImageXpress^Micro (IXM) high-content imaging system (Molecular Devices, USA) driven by MetaXpress software was used. Images of treated cells were automatically acquired by using a 10× objective. Twenty-one images per well were taken in each of three channels (DAPI, FITC, and Cy5) to create a whole view of the entire neural network. The integrity of the neural network was evaluated using TIF images by importing them into MetaXpress software for analysis using the module for multiparameter, such as Neurite Outgrowth, Cell Scoring, and Transfluor. Furthermore, the score of synaptogenesis was analyzed in AcuityXpress software (Molecular Devices, USA).
# primary cortical neurons [2] = test: Neurite outgrowth assay of primary cortical neurons (image-based HCS) against paclitaxel-induced neurotoxicity; type: cell-based, mouse; conditions: Mus musculus, Primary cortical neuron, mean ± SE; for activity at 0.01 µM: test compound 10 nM + paclitaxel 1 μM, read-out: C: Neurite outgrowth (% of control) of test compound (10 nM) + paclitaxel (1 μM); for activity at 1 µM: test compound 1000 nM + paclitaxel 1 μM, read-out: D: Neurite outgrowth (% of control) of test compound (1000 nM) + paclitaxel (1 μM)
# Source text: (§2) Herein, we wish to report that an in vitro neurite outgrowth assay of cortical neurons integrated with an image-based high-content screening (HCS) platform is used to evaluate a commercially available library of 78 minoxidil-related derivatives,[22] leading to the identification of a series of analogues able to prevent or alleviate paclitaxel-induced neurotoxicity. The project began with screening compounds with the primary culture of cortical neurons from neonatal mice. More specifically, cerebral cortex neurons cultured from P0 C57BL/6J mouse pups were incubated with a test compound (10 and 1000 nM) prior to paclitaxel (1 μM) treatment. Subsequently, both neurite outgrowth and synaptogenesis were measured to evaluate the test compounds’ neuroprotective capacity. […] This unique feature is preserved for the core-structure screening of our in-house library in the following subject. Moreover, the substituent at the C4 position appears flexible in terms of structural diversity. Collectively, CSV0A024807, the only one displaying the best neuroprotective potency on both neurite outgrowth and synaptogenesis assays, was thus elected as a potential hit compound for further development.
# as §1
# primary cortical neurons [3] = test: Synaptogenesis assay of primary cortical neurons (image-based HCS) against paclitaxel-induced neurotoxicity; type: cell-based, mouse; conditions: Mus musculus, Primary cortical neuron, mean ± SE; for activity at 0.01 µM: test compound 10 nM + paclitaxel 1 μM, read-out: A: Synaptogenesis (% of control) of test compound (10 nM) + paclitaxel (1 μM); for activity at 1 µM: test compound 1000 nM + paclitaxel 1 μM, read-out: B: Synaptogenesis (% of control) of test compound (1000 nM) + paclitaxel (1 μM)
# Source text: as §2, §1
# [4] = Table 1, A: neurite outgrowth (% of control) of test compound 1000 nM + paclitaxel 50 nM, B: paclitaxel 50 nM alone, DRG neurons, read-out: Neuroprotection rate = (A-B)±S.E.M [%]
# [5] = Table S2, test compound 1000 nM + paclitaxel 50 nM minus paclitaxel 50 nM, read-out: Neuroprotection rate = (A-B) ± S.E.M [%]
# [6] = supplementary CSV, test compound 1000 nM, read-out: A-B (A: neurite outgrowth (% of control) of test compound (1000 nM) + paclitaxel (50 nM), B: of paclitaxel (50 nM))
Structure (SMILES),"activation at 1 µM [1, 4]","activation at 1 µM [1, 5]","activation at 1 µM [1, 6]",other results
"CCOP(=O)(CCN1CCC(Nc2cc(N3CCOCC3)nc(NCc3cn(CCCO)nn3)n2)CC1)OCC [CN012, {2-[4-(2-{[1-(3-Hydroxy-propyl)-1H-[1,2,3]triazol-4-ylmethyl]-amino}-6-morpholin-4-yl-pyrimidin-4-ylamino)-piperidin-1-yl]-ethyl}-phosphonic Acid Diethyl Ester]",12 ± 1%,9 ± 1%,9%,protective efficacy against paclitaxel-induced neurotoxicity (in words) ([1]; DRG neurons): exhibited protective efficacy
"CCOP(=O)(CCN1CCC(Nc2cc(N3CCOCC3)nc(NCc3cn(CCC(C)(C)O)nn3)n2)CC1)OCC [CN013, {2-[4-(2-{[1-(3-Hydroxy-3-methyl-butyl)-1H-[1,2,3]triazol-4-ylmethyl]-amino}-6-morpholin-4-yl-pyrimidin-4-ylamino)-piperidin-1-yl]-ethyl}-phosphonic Acid Diethyl Ester]",–,6 ± 1.17%,6%,–
"COC(=O)CCN1CCC(Nc2cc(N3CCOCC3)nc(NCc3cn(CCCO)nn3)n2)CC1 [CN009, 3-[4-(2-{[1-(3-Hydroxy-propyl)-1H-[1,2,3]triazol-4-ylmethyl]-amino}-6-morpholin-4-yl-pyrimidin-4-ylamino)-piperidin-1-yl]-propionic Acid Methyl Ester]",–,15 ± 1.28%,15%,protective efficacy against paclitaxel-induced neurotoxicity (in words) ([1]; DRG neurons): exhibited protective efficacy
"O=C(O)Cn1cc(CNc2nc(NC3CCN(Cc4ccccc4)CC3)cc(N3CCOCC3)n2)nn1 [CN001, (4-{[4-(1-Benzyl-piperidin-4-ylamino)-6-morpholin-4-yl-pyrimidin-2-ylamino]-methyl}-[1,2,3]triazol-1-yl)-acetic Acid Hydrochloride Salt]",–,-6 ± 0.3%,-6%,–
"CCOP(=O)(CCN1CCC(Nc2cc(N3CCOCC3)nc(NCc3cn(CCCOCCC(=O)OC)nn3)n2)CC1)OCC [CN015, 3-(3-{4-[(4-{1-[2-(Diethoxy-phosphoryl)-ethyl]-piperidin-4-ylamino}-6-morpholin-4-yl-pyrimidin-2-ylamino)-methyl]-[1,2,3]triazol-1-yl}-propoxy)-propionic Acid Methyl Ester]",–,3 ± 1.11%,3%,–
"O=P(O)(O)CCN1CCC(Nc2cc(N3CCOCC3)nc(NCc3cn(CCO)nn3)n2)CC1 [CN020, (2-(4-((2-(((1-(2-Hydroxyethyl)-1H-1,2,3-triazol-4-yl)methyl)amino)-6-morpholinopyrimidin-4-yl)amino)piperidin-1-yl)ethyl)phosphonic Acid Hydrobromide Salt]",8 to 11%,–,8%,–
"COC(=O)CCOCCCn1cc(CNc2nc(NC3CCN(Cc4ccc5ccccc5c4)CC3)cc(N3CCOCC3)n2)nn1 [CN005, 3-[3-(4-{[4-Morpholin-4-yl-6-(1-naphthalen-2-ylmethyl-piperidin-4-ylamino)-pyrimidin-2-ylamino]-methyl}-[1,2,3]triazol-1-yl)-propoxy]-propionic Acid Methyl Ester]",–,-3 ± 0.41%,-3%,–
"O=P(O)(O)CCN1CCC(Nc2cc(N3CCSCC3)nc(NCc3cn(CCCO)nn3)n2)CC1 [CN023, {2-[4-(2-{[1-(3-Hydroxy-propyl)-1H-[1,2,3]triazol-4-ylmethyl]-amino}-6-thiomorpholin-4-yl-pyrimidin-4-ylamino)-piperidin-1-yl]-ethyl}-phosphonic Acid Hydrobromide Salt]",4 ± 1.43%,–,4%,–
"CSCCCn1cc(CNc2nc(NC3CCN(Cc4ccccc4)CC3)cc(N3CCOCC3)n2)nn1 [CN003, N4-(1-Benzyl-piperidin-4-yl)-N2-[1-(3-methylsulfanyl-propyl)-1H-[1,2,3]triazol-4-ylmethyl]-6-morpholin-4-yl-pyrimidine-2,4-diamine]",–,1 ± 2.6%,1%,–
"CC(O)Cn1cc(CNc2nc(NC3CCN(CCP(=O)(O)O)CC3)cc(N3CCOCC3)n2)nn1 (stereo not shown) [CN025, {2-[4-(2-{[1-(2-Hydroxy-propyl)-1H-[1,2,3]triazol-4-ylmethyl]-amino}-6-morpholin-4-yl-pyrimidin-4-ylamino)-piperidin-1-yl]-ethyl}-phosphonic Acid Hydrobromide Salt]",4 ± 0.63%,–,4%,–
"O=P(O)(O)CCN1CCC(Nc2cc(N3CCCCC3)nc(NCc3cn(CCCO)nn3)n2)CC1 [CN022, {2-[4-(2-{[1-(3-Hydroxy-propyl)-1H-[1,2,3]triazol-4-ylmethyl]-amino}-6-piperidin-1-yl-pyrimidin-4-ylamino)-piperidin-1-yl]-ethyl}-phosphonic Acid Hydrobromide Salt]",6 ± 0.78%,–,6%,–
"CCOP(=O)(CCN1CCC(Nc2cc(N3CCOCC3)nc(NCc3ccc(CCO)cc3)n2)CC1)OCC [CN018, Diethyl(2-(4-((2-((4-(2-hydroxyethyl)benzyl)amino)-6-morpholinopyrimidin-4-yl)amino)piperidin-1-yl)ethyl)phosphonate]",–,3 ± 2.2%,3%,protective efficacy against paclitaxel-induced neurotoxicity (in words) ([1]; DRG neurons): inactive
"CC(C)(O)CCn1cc(CNc2nc(NC3CCN(CCP(=O)(O)O)CC3)cc(N3CCOCC3)n2)nn1 [CN027, {2-[4-(2-{[1-(3-Hydroxy-3-methyl-butyl)-1H-[1,2,3]triazol-4-ylmethyl]-amino}-6-morpholin-4-yl-pyrimidin-4-ylamino)-piperidin-1-yl]-ethyl}-phosphonic Acid Hydrobromide Salt]",5 ± 0.93%,–,5%,–
"COC(=O)CCOCCCn1cc(CNc2nc(NC3CCN(CCC(=O)OC)CC3)cc(N3CCOCC3)n2)nn1 [CN011, 3-{3-[4-({4-[1-(2-Methoxycarbonyl-ethyl)-piperidin-4-ylamino]-6-morpholin-4-yl-pyrimidin-2-ylamino}-methyl)-[1,2,3]triazol-1-yl]-propoxy}-propionic Acid Methyl Ester]",–,4 ± 4.1%,4%,–
O=P(O)(O)CCN1CCC(Nc2cc(N3CCOCC3)nc(NCc3ccc(CCO)cc3)n2)CC1 [CN019],–,-2 ± 1.2%,-2%,protective efficacy against paclitaxel-induced neurotoxicity (in words) ([1]; DRG neurons): inactive
"CCOP(=O)(CCN1CCC(Nc2cc(N3CCOCC3)nc(NCc3cn(CCC(C)O)nn3)n2)CC1)OCC (stereo not shown) [CN014, {2-[4-(2-{[1-(3-Hydroxy-butyl)-1H-[1,2,3]triazol-4-ylmethyl]-amino}-6-morpholin-4-yl-pyrimidin-4-ylamino)-piperidin-1-yl]-ethyl}-phosphonic Acid Diethyl Ester]",–,9 ± 2%,9%,protective efficacy against paclitaxel-induced neurotoxicity (in words) ([1]; DRG neurons): exhibited protective efficacy
CCN(CC)c1cc(N/N=C/c2ccncc2)nc(N(CC)CC)n1 [CSV0A029945],–,–,–,activity at 0.01 µM (primary cortical neurons [2]): 41 ± 8%; activity at 1 µM (primary cortical neurons [2]): 75 ± 8%; activity at 0.01 µM (primary cortical neurons [3]): 35 ± 6%; activity at 1 µM (primary cortical neurons [3]): 50 ± 0.3%
CCN(CC)c1ccc(/C=N/Nc2cc(N3CCCCC3)nc(N3CCCCC3)n2)cc1 [CSV0A023090],–,–,–,activity at 0.01 µM (primary cortical neurons [2]): 57 ± 4%; activity at 1 µM (primary cortical neurons [2]): 58 ± 3%; activity at 0.01 µM (primary cortical neurons [3]): 82 ± 4%; activity at 1 µM (primary cortical neurons [3]): 86 ± 0.4%
